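All cell lines were grown in 96-well plates and treated with compound for 48 hours. Definition used: TGI = concentration required for complete inhibition of growth.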
What was measured:
Assay in all cases: inhibition of tumour cell growth, NCI panel, 48 h
SK-MEL-2 melanoma = tested on: SK-MEL-2 melanoma
SN12C renal = tested on: SN12C renal
U251 CNS = tested on: U251 CNS
COLO 205 colon = tested on: COLO 205 colon
BT-549 breast = tested on: BT-549 breast
OVCAR-5 ovarian = tested on: OVCAR-5 ovarian
M14 melanoma = tested on: M14 melanoma
NCI-H23 lung = tested on: NCI-H23 lung
A498 renal = tested on: A498 renal
DU-145 prostate = tested on: DU-145 prostate
T-47D breast = tested on: T-47D breast
HOP-62 NSCLC = tested on: HOP-62 NSCLC
MALME-3M melanoma = tested on: MALME-3M melanoma
SF-268 CNS = tested on: SF-268 CNS
HCT-15 colon = tested on: HCT-15 colon
A549 NSCLC = tested on: A549 NSCLC
HCT-116 colon = tested on: HCT-116 colon
UACC-62 melanoma = tested on: UACC-62 melanoma
SK-OV-3 ovarian = tested on: SK-OV-3 ovarian
SW-620 colon = tested on: SW-620 colon
UO-31 renal = tested on: UO-31 renal
KM12 colon = tested on: KM12 colon
NCI-H226 lung = tested on: NCI-H226 lung
RPMI-8226 leukemia = tested on: RPMI-8226 leukemia
MDA-MB-435 = tested on: MDA-MB-435
HCC-2998 colon = tested on: HCC-2998 colon
HS 578T breast = tested on: HS 578T breast
MDA-MB-231 breast = tested on: MDA-MB-231 breast
ACHN renal = tested on: ACHN renal
SK-MEL-28 melanoma = tested on: SK-MEL-28 melanoma
CCRF-CEM leukemia = tested on: CCRF-CEM leukemia
MOLT-4 leukemia = tested on: MOLT-4 leukemia
SNB-19 CNS = tested on: SNB-19 CNS
CAKI-1 renal = tested on: CAKI-1 renal
LOX IMVI melanoma = tested on: LOX IMVI melanoma
RXF 393 renal = tested on: RXF 393 renal
K-562 leukemia = tested on: K-562 leukemia
SF-539 CNS = tested on: SF-539 CNS
786-0 renal = tested on: 786-0 renal
NCI-H460 lung = tested on: NCI-H460 lung
SF-295 CNS = tested on: SF-295 CNS
EKVX NSCLC = tested on: EKVX NSCLC
OVCAR-3 ovarian = tested on: OVCAR-3 ovarian
SNB-75 CNS = tested on: SNB-75 CNS
PC-3 prostate = tested on: PC-3 prostate
MCF7 breast = tested on: MCF7 breast
OVCAR-8 ovarian = tested on: OVCAR-8 ovarian
OVCAR-4 ovarian = tested on: OVCAR-4 ovarian
HT29 colon = tested on: HT29 colon
UACC-257 melanoma = tested on: UACC-257 melanoma
NCI/ADR-RES ovarian = tested on: NCI/ADR-RES ovarian

Measured: TGI

O=c1[nH]nc(Cc2ccccc2)n1/N=C/c1ccco1
> 100 µM: all assays above

From PubChem BioAssay (NCI)
